Assay: Serum creatinine (Scr) change from baseline, SAD study (Part A)
Type: in vivo, human
Conditions: for Number of subjects with change in Scr <0.3 mg/dL from baseline / Number of subjects with change in Scr ≥0.3 mg/dL from baseline / Number of subjects with percent change in Scr <30% from baseline / Number of subjects with percent change in Scr ≥30% from baseline: SAD
Protocol: In addition to the measurement of various PK parameters in both parts of the study, the changes in the subjects' serum creatinine levels were also evaluated in this study. Tables 6A and 6B summarize the change in level and percent change in serum creatinine from averaged screening and pre-dosing values for the subjects in SAD study in each treatment group, as applicable. Tables 7A and 7B summarize the change in level and percent change in scrum creatinine from averaged screening and pre-dosing values for the subjects in MAD study. […] In Part B of the study, 2 subjects (275 mg BID) experienced clinically significant TEAEs of increased creatinine on day 5. The mean change in serum creatinine from a combined screening and pre-dose baseline in the MAD part of the study is illustrated in FIG. 1. In addition, the mean change in creatinine level from combined screening and pre-dose level in the MAD part of the study is illustrated in FIG. 2.

Exposures with increases over the upper limit of normal (ULN) in serum creatinine (Part A (SAD), exposures of doses of 200 mg or more): about 21%
Number of subjects with change in Scr <0.3 mg/dL from baseline (25 mg): 6
Number of subjects with change in Scr ≥0.3 mg/dL from baseline (25 mg): 0
Number of subjects with percent change in Scr <30% from baseline (25 mg): 6
Number of subjects with percent change in Scr ≥30% from baseline (25 mg): 0
Number of subjects with change in Scr <0.3 mg/dL from baseline (75 mg): 6
Number of subjects with change in Scr ≥0.3 mg/dL from baseline (75 mg): 0
Number of subjects with percent change in Scr <30% from baseline (75 mg): 6
Number of subjects with percent change in Scr ≥30% from baseline (75 mg): 0
Number of subjects with change in Scr <0.3 mg/dL from baseline (200 mg): 6
Number of subjects with change in Scr ≥0.3 mg/dL from baseline (200 mg): 0
Number of subjects with percent change in Scr <30% from baseline (200 mg): 6
Number of subjects with percent change in Scr ≥30% from baseline (200 mg): 0
Number of subjects with change in Scr <0.3 mg/dL from baseline (400 mg Fasted): 10
Number of subjects with change in Scr ≥0.3 mg/dL from baseline (400 mg Fasted): 2
Number of subjects with percent change in Scr <30% from baseline (400 mg Fasted): 9
Number of subjects with percent change in Scr ≥30% from baseline (400 mg Fasted): 3
Number of subjects with change in Scr <0.3 mg/dL from baseline (800 mg Fasted): 5
Number of subjects with change in Scr ≥0.3 mg/dL from baseline (800 mg Fasted): 1
Number of subjects with percent change in Scr <30% from baseline (800 mg Fasted): 4
Number of subjects with percent change in Scr ≥30% from baseline (800 mg Fasted): 2
Number of subjects with change in Scr <0.3 mg/dL from baseline (1600 mg): 6
Number of subjects with change in Scr ≥0.3 mg/dL from baseline (1600 mg): 0
Number of subjects with percent change in Scr <30% from baseline (1600 mg): 6
Number of subjects with percent change in Scr ≥30% from baseline (1600 mg): 0
SMILES: Cn1cc(-c2cn(-c3ccc(OC(F)(F)F)cc3)c(=O)c3ncn(C)c23)cn1 [Compound I]

— US11925624B2, “Methods of administering anti-fibrotic therapy” (GENENTECH, INC., priority 2016, dated 2024)
